Test results published in publication PMC8044163, “Vitamin D and lumisterol derivatives can act on liver X receptors (LXRs)” (Scientific Reports, 2021).

Key:
genes downstream of LXR = experiment: qPCR of genes downstream of LXR in murine dermal fibroblasts; assay type: cell-based, mouse; details: 10^–7 M, 24 h
Procedure: All animal studies followed guidelines outlined by the NIH Guide for the Care and Use of Laboratory Animals and protocols were approved by the Institutional Animal Care and Use Committee at the NIEHS or the UAB. The study was carried out in compliance with the ARRIVE guidelines (http://www.nc3rs.org.uk/page.asp?id=1357). Skin samples from newborn C57BL/6 mice were collected at the NIEHS. Dermal fibroblasts were isolated from the skin of newborn mice, 1–2 day old. Briefly, we followed the protocols described previously. The skin was washed in PBS, cut into smaller pieces and incubated in 2.4 U/ml of dispase II (Roche) overnight at 4 °C. The dermis was separated from the epidermis and incubated in 0.1% collagenase (Roche) at 4 °C overnight. Next day, it was cut into smaller pieces and incubated for 1 h in 0.25% Trypsin (CellGrow) at 37 °C. Single cell suspension was prepared by pipetting and draining through a cell strainer. After centrifugation, cell pellets were suspended in DMEM medium containing 10% charcoal-stripped fetal bovine serum (cFBS), mouse fibroblasts growth factor (FGF) and 1% antibiotic, and inoculated into tissue culture dishes (Midwest Scientific, TPP). Cells, in early passages, from different mice were pooled together to provide representative samples for experiments. Fibroblasts were cultured in Petri dishes (10 cm in diameter) in DMEM and 10% cFBS and triplicate semi-confluent cultures were treated as described.
RNA isolated from either fibroblasts, HaCaT cells or brain was submitted for cDNA synthesis (High Capacity cDNA Reverse Transcription Kit with RNase Inhibitor, Applied Biosystems) following the manufacturers’ protocols. RT-PCR was carried out using Cyber green, in triplicates; as previously described. Approximately, 750 ng of cDNA was used for PCR reactions. GAPDH and CIC-B were used as internal controls. Primer sequences are listed in Supplementary Table 27. Data were analyzed using GraphPad Prism statistical software one way ANOVA or t-test, where appropriate; *p < 0.05; **p < 0.01; ***p < 0.001.

LXRα/β = experiment: Ligand induced translocation of LXRα/β to the nucleus, imaging flow cytometry in HaCaT; assay type: cell-based, human; details: 10^–7 M, 12 h
Procedure: HaCaT cells were plated in DMEM plus 5% cFBS either on a sterile glass cover slip placed in a well of a 6-well plates for immunofluorescence (IF) assays or TPP Petri dishes for image-stream flow cytometry, and treated with 10^–7 M D3- or L3-hydroxyderivatives or 0.1% ethanol (vehicle) as a negative control was added to each well, and the cells were incubated for 12 or 24 h at 37 °C with 5% CO2. For IF the cells were fixed in 4% paraformaldehyde for 15 min, incubated in 0.5% Triton X-100 in phosphate-buffered saline (PBS) for 5 min, and washed 3 times in PBS. After blocking with 2% bovine serum albumin (BSA) in PBS for 1 h at room temperature, the cells were treated with an anti-LXRα antibody (Novus Biologicals, LLC, Centennial, CO) at 1:200 in PBS supplemented with 2% BSA overnight in 4 °C. After washing the slides were incubated with a mouse anti-rabbit IgG-FITC (Santa Cruz Biotechnology, Inc, Dallas, TX) at 1:200 dilution for 1.5 h at 37 °C. After washing the slides were mounted using propidium iodide (PI) (Vector Labs, Burlingame, California) as a nuclear counterstain. The slides were examined using a KEYENCE America BZ-X710 Fluorescence Microscope (Itasca, IL). The images were subsequently analyzed using the JACoP plugin for colocalization analysis with ImageJ[74]. Five separate high-power field (40×) images were converted to grayscale and analyzed for each condition. Manders’ coefficient (M1), calculated using a preset threshold, was used to quantify the degree of colocalization between PI and LXRα with 0 representing no colocalization, and 1 representing perfect colocalization.
For Image Stream II (Amnis, Seattle, WA, USA) cytometer analyses, HaCaT cells were detached and processed as previously described. The cells were fixed with paraformaldehyde and permeabilized in methanol containing buffer[78],[79] and Hoechst stain (r37165, ThermoFisher) and rabbit antibodies to LXRα/β (sc 377260, AF 647, SantaCruz) or VDR (sc-13133, AF 488, SantaCruz) as described previously. Data were analyzed using IDEAS software (Amnis, Seattle, WA, USA).

LBD of LXRα = biological target: T1, LBD of LXRα (Homo sapiens, UniProt Q13133); experiment: LanthaScreen TR-FRET LXRα coactivator assay (LXR binding assay); assay type: biochemical; details: average values; for IC50: inverse agonist; for EC50: agonist, read-out: LXRα EC50
T1 construct: after addition of LXRα/β-LBD to the derivatives; purchased Thermo Fisher Scientific
T1 sequence (Q13133 209-447 limits assumed): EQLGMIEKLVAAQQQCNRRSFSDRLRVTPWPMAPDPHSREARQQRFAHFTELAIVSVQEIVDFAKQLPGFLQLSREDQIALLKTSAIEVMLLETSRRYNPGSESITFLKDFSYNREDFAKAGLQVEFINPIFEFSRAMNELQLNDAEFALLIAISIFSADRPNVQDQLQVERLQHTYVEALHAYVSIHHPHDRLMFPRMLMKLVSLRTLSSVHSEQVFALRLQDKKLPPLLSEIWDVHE
Procedure: (§1) Binding assays of graded concentrations of vitamin D3 or lumisterol hydroxyderivatives to LXRα/β were performed using the LanthaScreen TR-FRET LXRα/β Coactivator kit (Thermo Fisher Scientific, Inc., Waltham, MA) following the manufacture’s protocol. Briefly, after addition of LXRα/β-LBD to the derivatives, a mixture of peptide (Fluorescein-TRAP220/DRIP-2 for LXRα or Fluorescein-D22 for LXRβ) and antibody (Tb-anti-GST) was added to the reaction followed by incubation in room temperature for 2 h. TR-FRET ratio was calculated by dividing the emission at 520 nm by the emission at 495 nm using Synergy neo2 (BioTek, Winooski, VT).

LBD of LXRβ = biological target: T2, LBD of LXRβ (Homo sapiens, UniProt P55055); experiment: LanthaScreen TR-FRET LXRβ coactivator assay (LXR binding assay); assay type: biochemical; details: agonist; average values; read-out: LXRβ EC50
T2 construct: purchased Thermo Fisher Scientific
T2 sequence (P55055 222-460 limits assumed): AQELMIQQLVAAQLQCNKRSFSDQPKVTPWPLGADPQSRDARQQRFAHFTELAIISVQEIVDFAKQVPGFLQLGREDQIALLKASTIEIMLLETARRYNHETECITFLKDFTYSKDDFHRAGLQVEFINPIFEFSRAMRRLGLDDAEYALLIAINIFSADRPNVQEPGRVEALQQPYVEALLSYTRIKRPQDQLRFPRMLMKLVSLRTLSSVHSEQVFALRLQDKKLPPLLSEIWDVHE
Procedure: as §1

Cyp7a1 expression (genes downstream of LXR) | IC50 (LBD of LXRα) [nM] | EC50 (LBD of LXRβ) [nM] | EC50 (LBD of LXRα) [nM] | Structure (SMILES) | Abcg8 expression (genes downstream of LXR) | ApoE (apolipoprotein E) expression (genes downstream of LXR) | translocation of LXRα/β from the cytoplasm to the nucleus (LXRα/β) | Fas (fatty acid synthase) expression (genes downstream of LXR)
stimulated | 1100 | 14000 | – | C=C1/C(=C\C=C2/CCC[C@]3(C)[C@@H]([C@H](C)CCCC(C)(C)O)CC[C@@H]23)C[C@@H](O)C[C@@H]1O [1,25(OH)2D3, reference compound] | – | – | increased translocation | stimulated
– | – | 26000 | 1100 | C=C1CCC(O)CC1=CC=C1CCCC2(C)C1CCC2C(C)(O)CC(O)CC(C)C (stereo not shown) [20,23(OH)2D3] | induced | enhanced | – | –
stimulated | – | 2600 | 15 | C=C1CC[C@H](O)C/C1=C/C=C1\CCC[C@@]2(C)[C@H]1CC[C@@H]2[C@@](C)(O)CCCC(C)C [20(OH)D3] | – | – | increased translocation | stimulated
inhibited | 2100 | 1600 | – | C=C1C(=CC=C2CCCC3(C)C2CCC3C(C)(O)CC(O)CC(C)C)CC(O)CC1O (stereo not shown) [1,20,23(OH)3D3] | – | – | increased translocation | stimulated

Structure (SMILES) | Cyp7a1 expression (genes downstream of LXR) | IC50 (LBD of LXRα) [nM] | EC50 (LBD of LXRβ) [nM] | EC50 (LBD of LXRα) [nM] | Abcg8 expression (genes downstream of LXR) | ApoE (apolipoprotein E) expression (genes downstream of LXR) | translocation of LXRα/β from the cytoplasm to the nucleus (LXRα/β) | Fas (fatty acid synthase) expression (genes downstream of LXR)
CC(C)CCC[C@](C)(O)[C@H]1CC[C@H]2[C@@H]3CC=C4C[C@@H](O)CC[C@]4(C)[C@H]3CC[C@@]21C [20(OH)C, 20-hydroxycholesterol, reference compound] | inhibited | – | – | – | inhibited | inhibited | – | –
